# Results as given in ChEMBL document CHEMBL4330107, “Synthesis and biological evaluation of 3-aryl-4-indolyl-maleimides as potent mutant isocitrate dehydrogenase-1 inhibitors” (Bioorg Med Chem, 2019).
# Calls of active or inactive are those of the source. The calls are words filed in the database; no cut-off is given here.
# How the values were obtained:
# [1] = Inhibition of bovine GDH using L-glutamate as substrate measured after 1 hr; design: species or system Bos taurus
# [2] = target: T1, Hexokinase-4 (Homo sapiens, UniProt P35557); assay: Inhibition of recombinant human N-terminal GST-fused glucokinase expressed in Escherichia coli using […] by spectrophotometric assay
# T1 sequence (P35557 whole entry): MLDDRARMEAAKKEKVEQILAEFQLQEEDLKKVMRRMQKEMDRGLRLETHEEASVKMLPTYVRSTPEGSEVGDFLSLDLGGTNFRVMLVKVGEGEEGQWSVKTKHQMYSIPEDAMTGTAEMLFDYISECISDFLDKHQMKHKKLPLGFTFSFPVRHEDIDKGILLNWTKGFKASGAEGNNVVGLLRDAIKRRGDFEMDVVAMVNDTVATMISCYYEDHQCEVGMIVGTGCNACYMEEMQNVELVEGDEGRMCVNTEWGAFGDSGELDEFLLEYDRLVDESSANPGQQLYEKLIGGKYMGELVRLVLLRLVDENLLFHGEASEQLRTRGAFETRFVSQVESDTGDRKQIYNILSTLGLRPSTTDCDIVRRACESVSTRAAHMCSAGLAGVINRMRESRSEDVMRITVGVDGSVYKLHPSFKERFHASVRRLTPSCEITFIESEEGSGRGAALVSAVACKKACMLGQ
# [3] = target: Isocitrate dehydrogenase [NADP] cytoplasmic (Homo sapiens, UniProt O75874, R132H); assay: Inhibition of recombinant human N-terminal GST-fused IDH1 R132H mutant expressed in Escherichia coli using alpha-ketoglutarate as substrate preincubated for 15 mins followed by substrate addition
# [4] = target: Isocitrate dehydrogenase [NADP] cytoplasmic (Homo sapiens, UniProt O75874, R132L); assay: Inhibition of recombinant human N-terminal GST-fused IDH1 R132L mutant expressed in Escherichia coli using alpha-ketoglutarate as substrate preincubated for 15 mins followed by substrate addition
# [5] = system: Isocitrate dehydrogenase [NADP] cytoplasmic (Homo sapiens), O75874 [R132H]; assay: Inhibition of human IDH1 R132H mutant expressed in human U87MG cells assessed as reduction in 2-HG production at 5 to 20 uM after 48 hrs by LC-MS/MS analysis; type: cell-based
# [6] = target: Isocitrate dehydrogenase [NADP] cytoplasmic (Homo sapiens, UniProt O75874); assay: Inhibition of recombinant human N-terminal GST-fused wild-type IDH1 using sodium (D)-isocitrate as substrate by fluorescence assay
# [7] = target: T2, Isocitrate dehydrogenase [NADP], mitochondrial (Homo sapiens, UniProt P48735); assay: Inhibition of recombinant human N-terminal GST-fused wild-type IDH2 using sodium (D)-isocitrate as substrate preincubated for 15 mins followed by substrate addition by fluorescence assay
# T2 sequence (P48735 whole entry): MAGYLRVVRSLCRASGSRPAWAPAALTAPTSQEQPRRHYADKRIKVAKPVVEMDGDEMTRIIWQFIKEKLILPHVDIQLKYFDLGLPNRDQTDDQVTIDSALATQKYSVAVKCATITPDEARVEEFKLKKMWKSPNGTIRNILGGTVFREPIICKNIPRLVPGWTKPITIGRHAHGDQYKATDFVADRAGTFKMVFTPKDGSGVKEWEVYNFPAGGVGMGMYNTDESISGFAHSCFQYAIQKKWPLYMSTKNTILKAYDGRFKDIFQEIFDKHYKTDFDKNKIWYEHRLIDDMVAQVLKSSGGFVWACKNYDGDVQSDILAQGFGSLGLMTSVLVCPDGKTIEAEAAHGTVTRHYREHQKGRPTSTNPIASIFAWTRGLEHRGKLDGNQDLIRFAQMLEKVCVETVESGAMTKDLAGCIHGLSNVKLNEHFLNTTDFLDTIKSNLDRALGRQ
# [8] = target: Isocitrate dehydrogenase [NADP] cytoplasmic (Homo sapiens, UniProt O75874, R132C); assay: Inhibition of recombinant human N-terminal GST-fused IDH1 R132C mutant expressed in Escherichia coli using alpha-ketoglutarate as substrate preincubated for 15 mins followed by substrate addition
# [9] = Inhibition of Fructose-1,6-bisphosphatase expressed in Escherichia coli BL21 (DE3) by glucose-6-phosphate dehydrogenase/phosphoglucoisomerase coupled spectrophotometric method; design: species or system Corynebacterium glutamicum
# [10] = system: Isocitrate dehydrogenase [NADP] cytoplasmic (Homo sapiens), O75874 [R132H]; assay: Inhibition of recombinant human N-terminal GST-fused IDH1 R132H mutant expressed in Escherichia coli at 20 ug/ml using alpha-ketoglutarate as substrate preincubated for 15 mins followed by substrate addition relative to control
# [11] = system: Isocitrate dehydrogenase [NADP] cytoplasmic (Homo sapiens), O75874 [R132H]; assay: Inhibition of IDH1 R132H mutant in human TF1 cells assessed as reversal of cell differentiation block by measuring increase in HBG mRNA expression at 5 to 10 uM after 7 days by RT-qPCR analysis; type: cell-based
# [12] = system: Isocitrate dehydrogenase [NADP] cytoplasmic (Homo sapiens), O75874 [R132H]; assay: Inhibition of human IDH1 R132H mutant expressed in human U87MG cells assessed as reduction in 2-HG production after 48 hrs by LC-MS/MS analysis; type: cell-based
# Isocitrate dehydrogenase [NADP] cytoplasmic (Homo sapiens, UniProt O75874, R132C), sequence (O75874 2-414 R132C limits assumed): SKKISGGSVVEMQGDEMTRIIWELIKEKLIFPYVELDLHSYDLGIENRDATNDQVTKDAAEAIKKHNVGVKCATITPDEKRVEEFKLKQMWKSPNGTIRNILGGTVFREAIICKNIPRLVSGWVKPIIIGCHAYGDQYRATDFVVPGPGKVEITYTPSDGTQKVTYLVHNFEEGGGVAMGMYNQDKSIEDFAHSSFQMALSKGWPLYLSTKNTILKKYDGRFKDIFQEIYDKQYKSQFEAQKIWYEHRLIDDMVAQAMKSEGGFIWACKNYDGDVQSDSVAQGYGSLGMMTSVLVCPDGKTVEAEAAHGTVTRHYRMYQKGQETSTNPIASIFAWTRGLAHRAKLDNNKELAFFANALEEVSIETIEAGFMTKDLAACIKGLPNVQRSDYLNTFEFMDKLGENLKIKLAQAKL
# Isocitrate dehydrogenase [NADP] cytoplasmic (Homo sapiens), O75874 [R132H], sequence (O75874 whole entry R132H, the tested form may be a part): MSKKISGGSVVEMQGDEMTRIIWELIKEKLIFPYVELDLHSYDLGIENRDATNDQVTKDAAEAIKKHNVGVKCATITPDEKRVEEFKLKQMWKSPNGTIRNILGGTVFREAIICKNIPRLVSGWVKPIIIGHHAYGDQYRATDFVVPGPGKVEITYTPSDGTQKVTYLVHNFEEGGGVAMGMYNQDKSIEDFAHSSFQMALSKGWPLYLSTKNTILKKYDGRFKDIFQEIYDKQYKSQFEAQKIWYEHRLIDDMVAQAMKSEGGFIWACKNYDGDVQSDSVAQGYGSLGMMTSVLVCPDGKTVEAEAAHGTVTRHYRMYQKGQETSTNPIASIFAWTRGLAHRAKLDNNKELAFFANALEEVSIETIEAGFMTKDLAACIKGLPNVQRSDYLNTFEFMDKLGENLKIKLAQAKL
# Isocitrate dehydrogenase [NADP] cytoplasmic (Homo sapiens, UniProt O75874, R132L), sequence (O75874 2-414 R132L limits assumed): as the sequence (O75874 2-414 R132C limits assumed) above, with C131L counted along it
# Isocitrate dehydrogenase [NADP] cytoplasmic (Homo sapiens, UniProt O75874), sequence (O75874 whole entry, the tested form may be a part): as the sequence (O75874 whole entry R132H, the tested form may be a part) above, with H132R counted along it
# Isocitrate dehydrogenase [NADP] cytoplasmic (Homo sapiens, UniProt O75874, R132H), sequence (O75874 2-414 R132H limits assumed): as the sequence (O75874 2-414 R132C limits assumed) above, with C131H counted along it
compound,measurement,setting,value
Cn1nc(C2=C(c3cn(CCCCn4ccnc4)c4ccccc34)C(=O)NC2=O)c2cccnc21,IC50,[1],> 20 µM
same,IC50,[2],> 20 µM
same,IC50,[3],100 nM
same,IC50,[4],311 nM
same,inhibition,[5],inactive
same,IC50,[6],> 20 µM
same,IC50,[7],> 20 µM
same,IC50,[8],415 nM
same,IC50,[9],> 20 µM
O=C1NC(=O)C(n2cnc3ccccc32)=C1c1cn(CCCn2ccnc2)c2ccccc12,IC50,[3],7910 nM
Cn1nc(C2=C(c3cn(CCCn4cncn4)c4ccccc34)C(=O)NC2=O)c2cccnc21,IC50,[3],11900 nM
Cn1nc(C2=C(c3cn(CCCn4ccnc4)c4ccc(Br)cc34)C(=O)NC2=O)c2cccnc21,IC50,[3],5000 nM
O=C1NC(=O)C(c2cn(CCCn3ccnc3)c3ccccc23)=C1c1cc[nH]c1,IC50,[3],1580 nM
O=C1NC(=O)C(n2nnc3ccccc32)=C1c1cn(CCCn2ccnc2)c2ccccc12,IC50,[3],1400 nM
Cn1nc(C2=C(c3cn(CCCn4ccnc4)c4ccc(F)cc34)C(=O)NC2=O)c2cccnc21,IC50,[3],810 nM
Cn1nc(C2=C(c3cn(CCn4ccnc4)c4ccccc34)C(=O)NC2=O)c2cccnc21,IC50,[3],4420 nM
Cn1cc(C2=C(c3nn(CCCN4CCOCC4)c4ncccc34)C(=O)NC2=O)c2ccccc21,inhibition,[10],17.3%
Cn1cc(C2=C(c3cn(CCCn4ccnc4)c4ccccc34)C(=O)NC2=O)c2ccccc21,IC50,[3],1480 nM
CN1C(=O)C(c2cn(CCCn3ccnc3)c3ccccc23)=C(c2nn(C)c3ncccc23)C1=O,IC50,[3],930 nM
Cn1nc(C2=C(c3cn(CCCn4ccnc4)c4cc(Br)ccc34)C(=O)NC2=O)c2cccnc21,IC50,[1],> 20 µM
same,IC50,[2],> 20 µM
same,IC50,[3],60 nM
same,IC50,[4],192 nM
same,inhibition,[11],Active
same,IC50,[6],> 20 µM
same,IC50,[7],> 20 µM
same,IC50,[8],460 nM
same,IC50,[9],> 20 µM
same,inhibition,[12],Dose-dependent effect
Cc1cccc2c(C3=C(c4nn(C)c5ncccc45)C(=O)NC3=O)cn(CCCn3ccnc3)c12,IC50,[3],290 nM
O=C1NC(=O)C(c2cn(CCCn3ccnc3)c3ccccc23)=C1c1cccc2ccccc12,IC50,[3],3050 nM
COc1ccc2c(c1)c(C1=C(c3nn(C)c4ncccc34)C(=O)NC1=O)cn2CCCn1ccnc1,IC50,[3],13600 nM
O=C1NC(=O)C(c2cn(CCCn3ccnc3)c3ccccc23)=C1c1coc2ncccc12,IC50,[3],2220 nM
Cn1cc(C2=C(c3nn(CCCn4ccnc4)c4ncccc34)C(=O)NC2=O)c2ccccc21,IC50,[3],1280 nM
Cn1nc(C2=C(c3c[nH]c4ccccc34)C(=O)NC2=O)c2cccnc21,inhibition,[10],38.1%
O=C1NC(=O)C(n2ccc3cnccc32)=C1c1cn(CCCn2ccnc2)c2ccccc12,IC50,[3],3720 nM
Cn1nc(C2=C(c3cn(CCCn4ccnc4)c4cccc(Br)c34)C(=O)NC2=O)c2cccnc21,IC50,[3],930 nM
Cn1nc(C2=C(c3cn(CCCn4ccnc4)c4ccccc34)C(=O)NC2=O)c2cccnc21,IC50,[1],> 20 µM
same,IC50,[2],> 20 µM
same,IC50,[3],50 nM
same,IC50,[4],398 nM
same,inhibition,[5],inactive
same,IC50,[6],> 20 µM
same,IC50,[7],> 20 µM
same,IC50,[8],386 nM
same,IC50,[9],> 20 µM
Cn1nc(C2=C(c3cn(CCCn4ccnc4)c4cc(Cl)ccc34)C(=O)NC2=O)c2cccnc21,IC50,[1],> 20 µM
same,IC50,[2],> 20 µM
same,IC50,[3],140 nM
same,IC50,[4],307 nM
same,IC50,[6],> 20 µM
same,IC50,[7],> 20 µM
same,IC50,[8],423 nM
same,IC50,[9],> 20 µM
same,inhibition,[12],Dose-dependent effect
Cn1nc(C2=C(c3cn(CCCN4CCOCC4)c4ccccc34)C(=O)NC2=O)c2cccnc21,inhibition,[10],7.36%
O=C1NC(=O)C(c2cn(CCCn3ccnc3)c3ccccc23)=C1c1ccccc1,IC50,[3],1980 nM
Cn1nc(C2=C(c3cn(CCCO)c4ccccc34)C(=O)NC2=O)c2cccnc21,IC50,[3],39600 nM
O=C1NC(=O)C(n2ccc3ccncc32)=C1c1cn(CCCn2ccnc2)c2ccccc12,IC50,[3],1450 nM
CCn1nc(C2=C(c3cn(CCCn4ccnc4)c4ccccc34)C(=O)NC2=O)c2cccnc21,IC50,[3],230 nM
Cn1nc(C2=C(c3cn(CCCn4ccnc4)c4cc(F)ccc34)C(=O)NC2=O)c2cccnc21,IC50,[1],> 20 µM
same,IC50,[2],> 20 µM
same,IC50,[3],90 nM
same,IC50,[4],246 nM
same,IC50,[6],> 20 µM
same,IC50,[7],> 20 µM
same,IC50,[8],334 nM
same,IC50,[9],> 20 µM
same,inhibition,[12],Dose-dependent effect
Cn1cc(C2=C(c3nn(CCCn4cncn4)c4ncccc34)C(=O)NC2=O)c2ccccc21,inhibition,[10],20.6%
COc1ccc2c(C3=C(c4nn(C)c5ncccc45)C(=O)NC3=O)cn(CCCn3ccnc3)c2c1,IC50,[3],190 nM
Cc1ccc2c(C3=C(c4nn(C)c5ncccc45)C(=O)NC3=O)cn(CCCn3ccnc3)c2c1,IC50,[1],> 20 µM
same,IC50,[2],> 20 µM
same,IC50,[3],60 nM
same,IC50,[4],189 nM
same,IC50,[6],> 20 µM
same,IC50,[7],> 20 µM
same,IC50,[8],483 nM
same,IC50,[9],> 20 µM
same,inhibition,[12],Dose-dependent effect
Cc1ccccc1C(C(=O)NC1CCCCC1)N(C(=O)Cn1ccnc1C)c1cccc(F)c1 (stereo not given),IC50,[1],> 20 µM
same,IC50,[2],> 20 µM
same,IC50,[3],20 nM
same,IC50,[4],186 nM
same,IC50,[6],> 20 µM
same,IC50,[7],> 20 µM
same,IC50,[8],227 nM
same,IC50,[9],> 20 µM
Cn1nc(C2=C(c3cn(CCCn4ccnc4)c4ccccc34)C(=O)NC2=O)c2ccccc21,IC50,[3],1540 nM
CCCCn1nc(C2=C(c3cn(CCCn4ccnc4)c4ccccc34)C(=O)NC2=O)c2cccnc21,IC50,[3],950 nM
